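Results reflect a 48-hour exposure of cells in 96-well plates to compound at five concentrations. The concentration for 50% growth inhibition is given as GI50.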 Activity calls are given as the source filed them. Cut-off read from the data, not from the text of the source: active = GI50 up to about 1.1 µM and inactive = higher.
Columns and labels:
Experiment in all cases: NCI anticancer screen, dose series, 48 h
[1] = test system: A498
[2] = test system: COLO 205
[3] = test system: DU-145
[4] = test system: HOP-92
[5] = test system: K562
[6] = test system: LOX IMVI
[7] = test system: MDA-MB-435
[8] = test system: NCI-H23
[9] = test system: NCI-H522
[10] = test system: NCI/ADR-RES
[11] = test system: OVCAR-8
[12] = test system: RPMI-8226
[13] = test system: RXF 393
[14] = test system: SF-268
[15] = test system: SF-295
[16] = test system: TK-10
[17] = test system: U-251
[18] = test system: UACC-257
[19] = test system: UO-31
[20] = test system: SR

N=C(Nc1nc(-c2ccccn2)cc2ccccc12)c1ccccn1
GI50 [1]: 0.233 µM (active)
GI50 [2]: 0.011 µM (active)
GI50 [3]: 0.0673 µM (active)
GI50 [4]: 0.0233 µM (active)
GI50 [5]: 0.0108 µM (active)
GI50 [6]: 0.0266 µM (active)
GI50 [7]: 0.12 µM (active)
GI50 [8]: 0.0156 µM (active)
GI50 [9]: 0.0398 µM (active)
GI50 [10]: < 0.0185 µM (active)
GI50 [11]: < 0.0179 µM (active)
GI50 [12]: 0.00201 µM (active)
GI50 [13]: 0.0168 µM (active)
GI50 [14]: 0.065 µM (active)
GI50 [15]: 0.326 µM (active)
GI50 [16]: 0.249 µM (active)
GI50 [17]: 0.0295 µM (active)
GI50 [18]: < 0.0172 µM (active)
GI50 [19]: 0.0918 µM (active)

Nc1ncnc2c1ncn2C1CCC(CO)O1 (stereo not drawn)
GI50 [1]: > 85.1 µM (inactive)
GI50 [2]: > 100 µM (inactive)
GI50 [4]: > 79.8 µM (inactive)
GI50 [5]: > 100 µM (inactive)
GI50 [6]: > 100 µM (inactive)
GI50 [8]: > 66.7 µM (inactive)
GI50 [9]: > 100 µM (inactive)
GI50 [10]: > 77.4 µM (inactive)
GI50 [11]: > 79.4 µM (inactive)
GI50 [12]: > 100 µM (inactive)
GI50 [13]: > 100 µM (inactive)
GI50 [14]: > 60.5 µM (inactive)
GI50 [15]: > 79.4 µM (inactive)
GI50 [17]: > 100 µM (inactive)
GI50 [18]: > 100 µM (inactive)
GI50 [19]: > 100 µM (inactive)

Cc1cc(-c2ccc(C(=O)C(Cl)(Cl)Cl)[nH]2)on1
GI50 [1]: 41.3 µM (inactive)
GI50 [2]: 86.7 µM (inactive)
GI50 [3]: 16.1 µM (inactive)
GI50 [4]: 51.5 µM (inactive)
GI50 [5]: 18.3 µM (inactive)
GI50 [6]: 24.9 µM (inactive)
GI50 [7]: 20.5 µM (inactive)
GI50 [8]: 23.8 µM (inactive)
GI50 [9]: 21.2 µM (inactive)
GI50 [10]: 29.3 µM (inactive)
GI50 [11]: 32.7 µM (inactive)
GI50 [12]: 8.51 µM (inactive)
GI50 [13]: 17.1 µM (inactive)
GI50 [14]: 36.9 µM (inactive)
GI50 [15]: 33.3 µM (inactive)
GI50 [16]: 27.4 µM (inactive)
GI50 [17]: 15.4 µM (inactive)
GI50 [18]: 42.1 µM (inactive)
GI50 [19]: 22.3 µM (inactive)

CNc1cc(Cl)ccc1C(=O)N1CCC[C@H]1CO
GI50 [1]: > 100 µM (inactive)
GI50 [2]: > 100 µM (inactive)
GI50 [3]: > 100 µM (inactive)
GI50 [6]: > 100 µM (inactive)
GI50 [7]: > 100 µM (inactive)
GI50 [8]: > 100 µM (inactive)
GI50 [9]: > 100 µM (inactive)
GI50 [10]: > 100 µM (inactive)
GI50 [11]: > 100 µM (inactive)
GI50 [13]: > 100 µM (inactive)
GI50 [14]: > 100 µM (inactive)
GI50 [15]: > 100 µM (inactive)
GI50 [16]: > 100 µM (inactive)
GI50 [17]: > 100 µM (inactive)
GI50 [18]: > 100 µM (inactive)
GI50 [19]: > 100 µM (inactive)

O=c1[nH]cnc2c1sc1nc3ccccc3n12
GI50 [1]: 33.3 µM (inactive)
GI50 [2]: > 100 µM (inactive)
GI50 [3]: > 100 µM (inactive)
GI50 [4]: > 100 µM (inactive)
GI50 [6]: 27.8 µM (inactive)
GI50 [7]: > 100 µM (inactive)
GI50 [8]: > 100 µM (inactive)
GI50 [9]: > 100 µM (inactive)
GI50 [10]: > 100 µM (inactive)
GI50 [11]: > 100 µM (inactive)
GI50 [12]: > 100 µM (inactive)
GI50 [13]: 16.3 µM (inactive)
GI50 [14]: > 100 µM (inactive)
GI50 [15]: > 100 µM (inactive)
GI50 [16]: 70 µM (inactive)
GI50 [17]: > 100 µM (inactive)
GI50 [18]: > 100 µM (inactive)
GI50 [19]: 42.3 µM (inactive)

COc1cc([C@@H]2c3cc4c(cc3[C@@H](c3c(O)cc(O)c5c3O[C@H](c3ccc(O)c(O)c3)[C@H](OC(=O)c3cc(O)c(O)c(O)c3)C5)[C@H]3COC(=O)[C@H]23)OCO4)cc(OC)c1O
GI50 [1]: 74.5 µM (inactive)
GI50 [2]: 28.7 µM (inactive)
GI50 [3]: 32 µM (inactive)
GI50 [4]: 58.2 µM (inactive)
GI50 [6]: 29.2 µM (inactive)
GI50 [7]: 22.6 µM (inactive)
GI50 [8]: 69.2 µM (inactive)
GI50 [9]: 24 µM (inactive)
GI50 [10]: 54.8 µM (inactive)
GI50 [11]: 35.6 µM (inactive)
GI50 [12]: 26.6 µM (inactive)
GI50 [13]: 59.4 µM (inactive)
GI50 [14]: 30.8 µM (inactive)
GI50 [15]: 39.3 µM (inactive)
GI50 [16]: 92.3 µM (inactive)
GI50 [17]: 46.5 µM (inactive)
GI50 [18]: > 100 µM (inactive)

COc1cccc(/C=N/n2c(-c3ccccc3)n[nH]c2=O)c1
GI50 [1]: 24.4 µM (inactive)
GI50 [2]: > 100 µM (inactive)
GI50 [3]: 49.5 µM (inactive)
GI50 [5]: > 100 µM (inactive)
GI50 [7]: > 100 µM (inactive)
GI50 [8]: 27.3 µM (inactive)
GI50 [10]: 39.4 µM (inactive)
GI50 [11]: 29.8 µM (inactive)
GI50 [12]: > 100 µM (inactive)
GI50 [14]: 17.5 µM (inactive)
GI50 [15]: 21.2 µM (inactive)
GI50 [17]: 34.5 µM (inactive)
GI50 [18]: 42.6 µM (inactive)
GI50 [19]: > 100 µM (inactive)

Cc1c2c(n(CCc3ccc(Cl)cc3)c1C)NN=C(C#N)S2(=O)=O
GI50 [2]: > 100 µM (inactive)
GI50 [3]: > 100 µM (inactive)
GI50 [5]: 84.7 µM (inactive)
GI50 [6]: > 100 µM (inactive)
GI50 [7]: 42.2 µM (inactive)
GI50 [8]: > 100 µM (inactive)
GI50 [10]: 61.9 µM (inactive)
GI50 [12]: > 100 µM (inactive)
GI50 [14]: 48.5 µM (inactive)
GI50 [20]: 61.9 µM (inactive)
GI50 [16]: > 100 µM (inactive)
GI50 [17]: > 100 µM (inactive)
GI50 [18]: > 100 µM (inactive)
GI50 [19]: > 100 µM (inactive)

Reference: ChEMBL document CHEMBL1201862, “PubChem BioAssay data set” (2004)
